Paper PMC3432134, “Effect of Ambient Temperature on the Thermoregulatory and Locomotor Stimulant Effects of 4-Methylmethcathinone in Wistar and Sprague-Dawley Rats” (PLoS ONE, 2012)
Where “and” joins values, the source holds several entries; their conditions need not be identical. Identical values can stand only once.

Key:
[1] = tested on: Wistar and Sprague-Dawley rats; assay: Body temperature by implanted radiotelemetry after s.c. drug challenge
[2] = tested on: extra-cellular serotonin in the nucleus accumbens shell; assay: In vivo microdialysis, nucleus accumbens shell, serotonin; design: species or system rat; conditions: 5 male Wistar rats, 10 mg/kg s.c.
Procedure: (§1) For microdialysis studies, drug naïve rats were implanted with a microdialysis guide cannula and probe using previously published procedures. A guide cannula (SciPro, Sanborn, NY) was implanted aimed at the NAc shell (AP = +1.6 mm, bregma; ML = ±2.0 mm, bregma; DV = –5.0 mm, dura), and rats were allowed one week for recovery. On the evening prior to the experiment, a 2 mm microdialysis probe was inserted into the guide cannula and perfused overnight with artificial CSF (0.1 µl/min) composed of the following (in mM): 149 NaCl, 2.8 KCl, 1.2 CaCl2, 1.2 MgCl2, 0.25 ascorbic acid, 5.4 D-glucose. The following morning, the perfusion rate was raised to 0.6 µl/min and samples were collected in 15 min fractions following 1 hr of equilibration.

[3] = tested on: 5-HT2 receptor subtypes versus D2 receptors; design: method as in PMID 21824752; conditions: in vitro; greater affinity for 5-HT2; cited from earlier work
experienced-user sample = conditions: one experienced-user sample; cited from earlier work
[4] = tested on: extra-cellular dopamine in the nucleus accumbens shell; assay: In vivo microdialysis, nucleus accumbens shell, dopamine; design: species or system rat; conditions: 5 male Wistar rats, 10 mg/kg s.c.
Procedure: as §1

Sprague-Dawley rats = tested on: Sprague-Dawley rats; design: method as in PMID 21810934; conditions: four sequential doses of 1.0 or 3.0 mg/kg s.c. two hours apart, and i.v. self-administration (mean 1.77–6.78 mg/kg), ambient ≥27°C; cited from earlier work
[5] = Pharmacokinetic study, plasma levels by LC/MS/MS after s.c. dosing; format: in vivo, rat; conditions: for AUC(0-inf) / Tmax / Cmax: rat, plasma, sc, 5.6 mg/kg s.c.
Procedure: Surgical placement of jugular vein catheters was conducted at the vendor prior to delivery at the laboratory. Blood samples were collected via the jugular catheters at timepoints 5, 15, 30, 60, 120 min and 3, 6 and 24 hrs after dosing. Plasma was stored at −80°C until analysis for drug concentrations via LC/MS/MS. Sample analysis was by LC/MS/MS with data analysis via the non compartmental analysis model of PK Solutions (Summit Research Services; Montrose, CO). The summary data for the Sprague-Dawley group have been previously described.

[6] = tested on: Wistar and Sprague-Dawley rats; assay: Locomotor activity (activity counts) by implanted radiotelemetry after s.c. drug challenge
extracellular dopamine = tested on: extracellular dopamine; design: method as in PMID 21615721, PMID 22169943; conditions: cited from earlier work
[7] = Wistar Han, male Wistar rats (N = 3)
[8] = male Sprague Dawley rats (N = 3), summary data previously described [32]
[9] = subcutaneous dosing, rats (strain not given)
[10] = Sprague-Dawley rats, 23°C ambient, first hour after 3.2 mg/kg 4-MMC and 5.6 mg/kg METH, vs pretreatment and vehicle
[11] = Wistar and Sprague-Dawley rats, s.c.
[12] = Wistar rats, 23°C ambient, first hour after 3.2 mg/kg 4-MMC or 5.6 mg/kg METH, second hour after 10.0 mg/kg 4-MMC, third hour after 5.6 mg/kg METH
[13] = both strains, 23°C ambient, first hour after 10.0 mg/kg 4-MMC or 1.0 mg/kg METH s.c., greater in Sprague-Dawley

**Q.** Which mean temperature nadir ([1]; Sprague-Dawley rats, 0.3 mg/kg s.c., 23°C ambient) does the source give for CCCN(CCC)C1CCc2cccc(O)c2C1 (stereo not drawn) [8-OH-DPAT] here?
**A.** The mean temperature nadir was 35.62 (±0.177) °C.

**Q.** What about the “body temperature (hourly average)” value ([1]; Sprague-Dawley rats, 0.05, 0.1, 0.3 mg/kg, first hour (second hour also for 0.3 mg/kg), vs vehicle and baseline) of the same compound?
**A.** The value was “lowered body temperature”.

**Q.** And the mean temperature nadir ([1]; Wistar rats, 0.3 mg/kg s.c., 23°C ambient)?
**A.** Its mean temperature nadir is 35.18 (±0.178) °C.

**Q.** What about the “body temperature (hourly average)” value ([1]; Wistar rats, two hours after dosing with all three doses (0.05, 0.1, 0.3 mg/kg), vs vehicle and baseline) of the same compound?
**A.** The value was “hypothermia”.

**Q.** And the body temperature ([1]; each strain of rats, 23°C ambient, s.c.)?
**A.** Its body temperature is “significantly reduced”.

**Q.** Which results are given for CNC(C)C(=O)c1ccc(C)cc1 (stereo not drawn) [4-MMC, 4-methylmethcathinone]?
**A.** relative increase of extra-cellular 5-HT over baseline [2]: ~22 fold; duration of significant increase of 5-HT over the pre-treatment average ([2]; Dunnett post-hoc): 1.5 h; affinity for 5-HT2 receptor subtypes relative to D2 receptors [3]: 15 fold; users reporting cold extremities (experienced-user sample): About 15%; users reporting excessive perspiration (experienced-user sample): 67%; relative increase of extra-cellular DA over baseline [4]: ~9 fold; duration of significant increase of DA over the pre-treatment average ([4]; Dunnett post-hoc): 2 h; rectal temperature (Sprague-Dawley rats): elevates; AUC(0-inf) [5, 7]: 870 ng·h/mL; Tmax [5, 7]: 15 min; Cmax [5, 7]: 868 ng/mL and 4.9 µM; AUC(0-inf) [5, 8]: 1170 ng·h/mL; Tmax [5, 8]: 15 min; Cmax [5, 8]: 1210 ng/mL and 6.81 µM; elimination from plasma [5, 9]: mostly eliminated within two hours; time at which maximum plasma levels were observed [5, 9]: ≤ 15 min; body temperature (hourly average) ([1]; Sprague-Dawley rats, 23°C ambient, only following 3.2 mg/kg (2, 3 hrs) and 5.6 mg/kg (3 hrs)): lower than both the pretreatment baseline and the comparable timepoint after vehicle injection; body temperature (hourly average) ([1]; Sprague-Dawley rats, 23°C ambient, second hour after 10.0 mg/kg): increased relative to vehicle; body temperature (hourly average) ([1]; Sprague-Dawley rats, 27°C ambient, first hour after administration): unchanged; body temperature (hourly average) ([1]; Sprague-Dawley rats, 27°C ambient, third hour after 1.0 mg/kg, vs baseline and vehicle): reliable decrease; mean temperature nadir ([1]; Wistar rats, 10 mg/kg s.c., 23°C ambient, (±SEM)): 36.74 (±0.187) °C; mean temperature nadir ([1]; Wistar rats, 10 mg/kg s.c., 27°C ambient, (±SEM)): 37.35 (±0.115) °C; body temperature (hourly average) ([1]; Wistar rats, 23°C ambient, first hour after 3.2, 5.6 and 10 mg/kg s.c., vs baseline, saline and Sprague-Dawley): significantly lowered; body temperature (hourly average) ([1]; Wistar rats, 27°C ambient, first hour after 5.6 or 10.0 mg/kg s.c., vs baseline, saline and Sprague-Dawley): decreased; duration of temperature and activity effects ([1]; s.c. dosing, rats, applies to temperature and activity): about 90 minutes; locomotor activity (hourly summed counts) [6, 10]: reliably higher; locomotor activity (hourly summed counts) ([6]; Sprague-Dawley rats, 27°C ambient, first hour after 5.6 or 10.0 mg/kg, vs pre-injection, vehicle and Wistar): higher; efficacy in stimulating locomotion relative to d-methamphetamine (METH) [6, 11]: equally efficacious; potency in stimulating locomotion relative to METH [6, 11]: about tenfold less potent; locomotor activity (hourly summed counts) [6, 12]: higher than the vehicle condition; locomotor activity (hourly summed counts) ([6]; Wistar rats, 27°C ambient, after 3.2, 5.6 and 10.0 mg/kg, vs hour before injection and vehicle): higher; locomotor activity (hourly summed counts) [6, 13]: increased over pretreatment levels and vehicle; locomotor activity (hourly summed counts) ([6]; each strain, 23°C ambient, first hour after 5.6 or 10.0 mg/kg s.c., vs pre-injection hour and saline): significantly elevated; locomotor activity (hourly summed counts) ([6]; each strain, 23°C ambient, second hour after 10.0 mg/kg, vs vehicle, effect greater in Sprague-Dawley): significant increase; increase of extracellular dopamine, less than METH (extracellular dopamine): about 6 fold

**Q.** With CN[C@@H](C)Cc1ccccc1 [METH, d-methamphetamine] as the compound, how does the “body temperature (hourly average)” value ([1]; Sprague-Dawley rats, 23°C ambient, first hour after 1.0 mg/kg and first two hours after 5.6 mg/kg s.c., vs baseline and vehicle) read?
**A.** The value was “significantly increased”.

**Q.** What about the “locomotor activity (hourly summed counts)” value (“locomotor activity” for short) [6, 10] of the same compound?
**A.** The value was “reliably higher”.

**Q.** What about the “locomotor activity” value [6, 12] of the same compound?
**A.** Its value is “higher than the vehicle condition”.

**Q.** And the “locomotor activity” value [6, 13]?
**A.** The value was “increased over pretreatment levels and vehicle”.

**Q.** And the “locomotor activity” value ([6]; both strains, 23°C ambient, second hour after 5.6 mg/kg s.c.)?
**A.** Its value is “suppressed”.
